The results in this text go back to ChEMBL document CHEMBL3991601, “The target landscape of clinical kinase drugs” (Science, 2017).

Assay [1] concerns the target T1, Peroxisomal acyl-coenzyme A oxidase 3 (Homo sapiens, UniProt O15254).
T1 sequence (O15254 whole entry): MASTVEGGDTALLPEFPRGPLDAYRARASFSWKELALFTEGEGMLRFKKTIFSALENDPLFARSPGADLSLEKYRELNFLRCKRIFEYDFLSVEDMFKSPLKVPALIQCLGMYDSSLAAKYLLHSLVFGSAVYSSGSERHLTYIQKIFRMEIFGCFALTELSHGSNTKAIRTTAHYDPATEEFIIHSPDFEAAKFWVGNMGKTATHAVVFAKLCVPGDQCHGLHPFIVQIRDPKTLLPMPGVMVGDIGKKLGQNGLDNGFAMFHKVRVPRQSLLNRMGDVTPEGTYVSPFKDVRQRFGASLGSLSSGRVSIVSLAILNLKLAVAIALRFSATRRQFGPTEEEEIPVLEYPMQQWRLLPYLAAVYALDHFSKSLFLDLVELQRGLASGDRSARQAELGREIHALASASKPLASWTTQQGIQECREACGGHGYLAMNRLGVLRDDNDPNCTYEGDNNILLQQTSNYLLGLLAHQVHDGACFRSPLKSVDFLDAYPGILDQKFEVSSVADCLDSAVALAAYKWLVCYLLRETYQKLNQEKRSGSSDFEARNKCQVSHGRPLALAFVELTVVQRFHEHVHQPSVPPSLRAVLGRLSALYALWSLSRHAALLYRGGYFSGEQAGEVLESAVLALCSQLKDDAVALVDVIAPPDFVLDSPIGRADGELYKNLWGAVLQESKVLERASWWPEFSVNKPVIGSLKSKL

In assay [2] the target is Cyclin-dependent kinase 7 (Homo sapiens, UniProt P50613).
The target of assay [3] is Citron Rho-interacting kinase (Homo sapiens, UniProt O14578).
For assay [4], the target named is Casein kinase I isoform alpha (Homo sapiens, UniProt P48729).
Assay [5] deals with T2, dCTP pyrophosphatase 1 (Homo sapiens, UniProt Q9H773).
T2 sequence (Q9H773 whole entry): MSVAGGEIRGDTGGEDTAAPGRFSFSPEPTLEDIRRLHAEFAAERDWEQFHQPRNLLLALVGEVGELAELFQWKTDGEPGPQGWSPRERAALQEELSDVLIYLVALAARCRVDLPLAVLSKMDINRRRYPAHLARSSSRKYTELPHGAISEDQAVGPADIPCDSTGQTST

For assay [6], the target named is Insulin receptor (Homo sapiens, UniProt P06213).
For assay [7], the target named is Mitogen-activated protein kinase 1 (Homo sapiens, UniProt P28482).
The target of assay [8] is Mitogen-activated protein kinase 7 (Homo sapiens, UniProt Q13164).
Assay [9] deals with S-adenosylmethionine synthase isoform type-2 (Homo sapiens, UniProt P31153).
The target in assay [10] is Serine/threonine-protein kinase PAK 4 (Homo sapiens, UniProt O96013).
Assay [11] concerns the target T3, Membrane-associated tyrosine- and threonine-specific cdc2-inhibitory kinase (Homo sapiens, UniProt Q99640).
T3 sequence (Q99640 whole entry): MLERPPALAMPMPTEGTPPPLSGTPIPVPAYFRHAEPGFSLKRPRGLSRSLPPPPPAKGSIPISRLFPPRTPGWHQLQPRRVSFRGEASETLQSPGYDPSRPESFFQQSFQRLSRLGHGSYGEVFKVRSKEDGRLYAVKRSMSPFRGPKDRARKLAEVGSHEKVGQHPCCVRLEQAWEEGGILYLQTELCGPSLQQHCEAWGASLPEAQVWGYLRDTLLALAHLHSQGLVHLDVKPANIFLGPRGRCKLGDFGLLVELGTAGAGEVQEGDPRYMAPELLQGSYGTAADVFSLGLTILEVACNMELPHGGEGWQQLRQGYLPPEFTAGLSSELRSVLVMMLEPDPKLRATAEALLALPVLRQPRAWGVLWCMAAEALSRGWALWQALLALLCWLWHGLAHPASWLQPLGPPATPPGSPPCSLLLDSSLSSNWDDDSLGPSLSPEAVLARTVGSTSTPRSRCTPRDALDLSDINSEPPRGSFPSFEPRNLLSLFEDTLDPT

Assay [12] addresses Protein kinase C alpha type (Homo sapiens, UniProt P17252).
In assay [13] the target is T4, Septin-9 (Homo sapiens, UniProt Q9UHD8).
T4 sequence (Q9UHD8 whole entry): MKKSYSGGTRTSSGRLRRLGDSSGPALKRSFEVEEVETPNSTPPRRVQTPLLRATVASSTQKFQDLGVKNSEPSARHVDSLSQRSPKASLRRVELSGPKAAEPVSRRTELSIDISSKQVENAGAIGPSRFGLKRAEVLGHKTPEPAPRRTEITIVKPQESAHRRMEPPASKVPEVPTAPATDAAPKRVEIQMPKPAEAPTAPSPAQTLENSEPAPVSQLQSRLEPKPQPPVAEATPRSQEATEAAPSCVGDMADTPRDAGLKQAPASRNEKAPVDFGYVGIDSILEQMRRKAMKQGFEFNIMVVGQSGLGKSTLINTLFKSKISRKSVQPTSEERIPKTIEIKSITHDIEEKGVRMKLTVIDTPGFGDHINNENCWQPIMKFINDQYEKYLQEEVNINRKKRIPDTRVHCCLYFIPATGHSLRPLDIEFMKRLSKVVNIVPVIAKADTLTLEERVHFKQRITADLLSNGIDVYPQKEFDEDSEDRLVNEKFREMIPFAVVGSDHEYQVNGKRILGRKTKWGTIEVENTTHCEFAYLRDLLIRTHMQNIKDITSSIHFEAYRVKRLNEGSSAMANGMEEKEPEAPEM

Assay [14] addresses Serine/threonine-protein kinase 16 (Homo sapiens, UniProt O75716).

Active and inactive are the calls of the source.

For orientation: Kd means the equilibrium constant for the complex coming apart.
Further: in the data inactive means no Kd found up to 30 µM.

Sequence of Mitogen-activated protein kinase 7 (Q13164 whole entry, canonical isoform): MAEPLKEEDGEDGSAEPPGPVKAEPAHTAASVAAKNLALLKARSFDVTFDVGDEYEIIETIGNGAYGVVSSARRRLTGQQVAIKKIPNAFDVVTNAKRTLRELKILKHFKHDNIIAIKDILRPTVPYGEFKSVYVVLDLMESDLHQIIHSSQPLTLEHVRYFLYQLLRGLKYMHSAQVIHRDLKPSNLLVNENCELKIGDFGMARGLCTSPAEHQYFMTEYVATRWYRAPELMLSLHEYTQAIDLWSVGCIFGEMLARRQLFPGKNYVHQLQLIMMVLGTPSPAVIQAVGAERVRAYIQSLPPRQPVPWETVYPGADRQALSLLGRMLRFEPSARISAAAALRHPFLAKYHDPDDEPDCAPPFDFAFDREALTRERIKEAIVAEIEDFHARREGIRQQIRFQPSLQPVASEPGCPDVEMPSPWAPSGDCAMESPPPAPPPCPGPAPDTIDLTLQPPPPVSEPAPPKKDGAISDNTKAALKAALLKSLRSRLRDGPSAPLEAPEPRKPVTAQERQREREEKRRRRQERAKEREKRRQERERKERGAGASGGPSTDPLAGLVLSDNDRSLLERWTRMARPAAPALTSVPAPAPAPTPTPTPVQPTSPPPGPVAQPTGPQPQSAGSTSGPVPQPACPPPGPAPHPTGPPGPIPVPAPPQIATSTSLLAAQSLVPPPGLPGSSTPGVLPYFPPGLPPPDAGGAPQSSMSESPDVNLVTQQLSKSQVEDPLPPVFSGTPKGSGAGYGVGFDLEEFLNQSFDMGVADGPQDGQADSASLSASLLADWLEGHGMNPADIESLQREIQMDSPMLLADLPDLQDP
Sequence of Casein kinase I isoform alpha (P48729 whole entry, canonical isoform): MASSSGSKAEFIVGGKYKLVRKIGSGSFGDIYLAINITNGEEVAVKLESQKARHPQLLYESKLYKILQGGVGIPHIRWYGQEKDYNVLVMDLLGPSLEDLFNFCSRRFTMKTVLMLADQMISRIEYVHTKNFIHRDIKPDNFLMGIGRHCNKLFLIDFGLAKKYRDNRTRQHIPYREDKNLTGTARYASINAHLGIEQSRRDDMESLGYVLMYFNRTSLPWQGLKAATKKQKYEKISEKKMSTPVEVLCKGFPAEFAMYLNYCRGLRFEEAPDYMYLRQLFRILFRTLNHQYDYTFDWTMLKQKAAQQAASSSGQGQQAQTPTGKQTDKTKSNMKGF
Sequence of Serine/threonine-protein kinase PAK 4 (O96013 whole entry): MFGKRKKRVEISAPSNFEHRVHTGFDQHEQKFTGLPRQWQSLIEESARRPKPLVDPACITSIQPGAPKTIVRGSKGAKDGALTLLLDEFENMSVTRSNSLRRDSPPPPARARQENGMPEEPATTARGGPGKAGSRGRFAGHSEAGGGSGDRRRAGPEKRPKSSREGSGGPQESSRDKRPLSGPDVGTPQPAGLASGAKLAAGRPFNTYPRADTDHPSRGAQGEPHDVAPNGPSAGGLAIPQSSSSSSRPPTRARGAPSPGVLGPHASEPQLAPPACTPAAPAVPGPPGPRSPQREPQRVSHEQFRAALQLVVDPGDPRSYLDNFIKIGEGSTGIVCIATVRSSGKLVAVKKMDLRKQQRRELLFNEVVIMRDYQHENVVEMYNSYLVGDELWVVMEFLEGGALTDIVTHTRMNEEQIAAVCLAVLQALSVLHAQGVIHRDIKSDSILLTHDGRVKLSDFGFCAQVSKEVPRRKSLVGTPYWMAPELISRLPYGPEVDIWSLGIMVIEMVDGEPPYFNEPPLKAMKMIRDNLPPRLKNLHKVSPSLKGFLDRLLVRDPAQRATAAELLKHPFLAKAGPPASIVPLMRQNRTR
Sequence of Mitogen-activated protein kinase 1 (P28482 whole entry): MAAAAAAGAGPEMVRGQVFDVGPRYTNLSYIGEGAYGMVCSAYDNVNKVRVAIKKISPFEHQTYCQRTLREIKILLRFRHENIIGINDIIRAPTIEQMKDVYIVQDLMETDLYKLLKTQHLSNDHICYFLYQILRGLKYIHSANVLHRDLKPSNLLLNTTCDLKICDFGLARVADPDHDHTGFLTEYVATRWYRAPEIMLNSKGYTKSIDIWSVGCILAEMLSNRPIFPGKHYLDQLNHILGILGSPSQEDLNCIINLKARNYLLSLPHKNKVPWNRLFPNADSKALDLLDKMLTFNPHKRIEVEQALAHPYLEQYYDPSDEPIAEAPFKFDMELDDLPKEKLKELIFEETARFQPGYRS
Sequence of Cyclin-dependent kinase 7 (P50613 whole entry): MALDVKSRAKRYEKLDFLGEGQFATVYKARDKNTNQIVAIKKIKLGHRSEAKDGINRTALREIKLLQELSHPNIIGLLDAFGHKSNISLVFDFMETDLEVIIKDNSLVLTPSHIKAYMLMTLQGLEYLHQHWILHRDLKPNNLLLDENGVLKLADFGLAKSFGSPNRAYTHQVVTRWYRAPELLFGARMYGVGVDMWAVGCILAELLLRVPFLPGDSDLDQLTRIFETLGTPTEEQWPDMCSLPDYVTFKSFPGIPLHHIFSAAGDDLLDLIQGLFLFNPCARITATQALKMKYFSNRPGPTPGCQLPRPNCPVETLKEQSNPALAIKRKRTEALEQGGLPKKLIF
Sequence of S-adenosylmethionine synthase isoform type-2 (P31153 whole entry, canonical isoform): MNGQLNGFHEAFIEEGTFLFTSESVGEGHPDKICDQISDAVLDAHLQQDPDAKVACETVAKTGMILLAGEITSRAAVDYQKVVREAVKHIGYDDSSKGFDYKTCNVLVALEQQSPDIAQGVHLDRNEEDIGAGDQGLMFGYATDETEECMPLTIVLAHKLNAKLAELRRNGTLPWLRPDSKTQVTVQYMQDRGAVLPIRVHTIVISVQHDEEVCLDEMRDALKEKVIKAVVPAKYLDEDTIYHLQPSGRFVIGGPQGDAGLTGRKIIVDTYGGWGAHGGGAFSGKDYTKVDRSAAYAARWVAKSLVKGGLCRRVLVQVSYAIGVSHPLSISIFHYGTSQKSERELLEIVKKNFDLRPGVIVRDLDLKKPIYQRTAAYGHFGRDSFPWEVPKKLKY
Sequence of Insulin receptor (P06213 28-758 limits assumed): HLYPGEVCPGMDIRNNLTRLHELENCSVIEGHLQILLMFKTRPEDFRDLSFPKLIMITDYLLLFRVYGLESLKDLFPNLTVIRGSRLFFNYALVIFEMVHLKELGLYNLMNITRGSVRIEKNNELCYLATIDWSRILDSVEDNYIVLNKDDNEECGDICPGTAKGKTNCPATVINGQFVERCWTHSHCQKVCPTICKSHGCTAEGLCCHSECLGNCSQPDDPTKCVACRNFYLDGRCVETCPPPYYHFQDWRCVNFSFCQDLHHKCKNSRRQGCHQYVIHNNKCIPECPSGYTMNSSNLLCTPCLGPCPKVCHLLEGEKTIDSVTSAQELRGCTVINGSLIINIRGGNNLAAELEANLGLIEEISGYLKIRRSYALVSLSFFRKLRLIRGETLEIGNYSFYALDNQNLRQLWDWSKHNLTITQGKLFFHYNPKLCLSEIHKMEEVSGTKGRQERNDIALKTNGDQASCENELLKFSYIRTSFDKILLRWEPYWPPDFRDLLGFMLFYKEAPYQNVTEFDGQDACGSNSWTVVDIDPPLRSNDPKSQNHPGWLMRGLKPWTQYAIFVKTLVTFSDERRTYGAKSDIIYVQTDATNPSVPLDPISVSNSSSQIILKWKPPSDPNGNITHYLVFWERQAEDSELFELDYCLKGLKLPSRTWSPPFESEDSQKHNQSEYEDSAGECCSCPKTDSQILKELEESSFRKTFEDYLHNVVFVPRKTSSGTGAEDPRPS
Sequence of Insulin receptor (P06213 763-1382 limits assumed): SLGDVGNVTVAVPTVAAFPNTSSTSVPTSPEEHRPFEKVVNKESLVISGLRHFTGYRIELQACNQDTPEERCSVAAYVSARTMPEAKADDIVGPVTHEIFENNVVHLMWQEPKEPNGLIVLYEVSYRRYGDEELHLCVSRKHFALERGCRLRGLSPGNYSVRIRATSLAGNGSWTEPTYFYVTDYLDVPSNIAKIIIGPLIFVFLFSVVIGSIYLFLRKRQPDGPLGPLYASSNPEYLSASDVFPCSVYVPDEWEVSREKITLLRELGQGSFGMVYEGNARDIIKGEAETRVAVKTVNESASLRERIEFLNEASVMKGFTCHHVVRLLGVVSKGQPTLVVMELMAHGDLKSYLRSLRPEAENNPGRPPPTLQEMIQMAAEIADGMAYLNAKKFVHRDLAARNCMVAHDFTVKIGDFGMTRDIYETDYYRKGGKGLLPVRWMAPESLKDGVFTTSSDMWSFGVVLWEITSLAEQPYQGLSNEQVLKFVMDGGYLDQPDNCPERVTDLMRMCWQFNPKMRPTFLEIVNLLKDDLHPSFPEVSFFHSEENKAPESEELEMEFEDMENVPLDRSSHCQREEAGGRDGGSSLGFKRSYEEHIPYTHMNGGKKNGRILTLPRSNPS

For `COc1cc2ncnc(Nc3ccc(F)c(Cl)c3)c2cc1NC(=O)/C=C/CN1CCCCC1` [DACOMITINIB ANHYDROUS], the Kd in assay [1], in assay [2], in assay [3], in [4], in [5] and in assay [6] was > 30 µM (inactive) each time. In addition, the Kd in assay [7], in assay [8], in assay [9], in assay [10], in assay [11] and in assay [12] was > 30 µM (inactive) throughout. Moreover, the Kd in [13] and in [14] was > 30 µM (inactive) each time.
Consider `COCCN1CCN(Cc2ccc(-c3n[nH]c4c3C(=O)c3c(NC(=O)NN5CCOCC5)cccc3-4)cc2)CC1` [RGB-286638], for which the Kd in assay [1] was > 30 µM (inactive); in [2], 0.154 µM (active); in [3], 0.763 µM (active); in assay [4], 8.07 µM (active); in assay [5], > 30 µM (inactive); in assay [6], > 30 µM (inactive). In addition, the Kd in assay [7], in assay [8], in [9], in assay [10], in [11] and in [12] was > 30 µM (inactive) in each case. Further, the Kd was > 30 µM (inactive) in assay [13] and 0.515 µM in assay [14].
For `O=C(NOC[C@H](O)CO)c1ccc(F)c(F)c1Nc1ccc(I)cc1F` [MIRDAMETINIB], the Kd in assay [1], in assay [2], in assay [3], in assay [4], in assay [5] and in assay [6] was > 30 µM (inactive) in each case. For the same compound, the Kd in assay [7], in assay [8], in assay [10], in assay [11], in [12] and in assay [13] was > 30 µM (inactive) in each case. The Kd in assay [14] was > 30 µM (inactive).
With `CNC(=O)c1cccc(-c2ccc3c(N4CCOC[C@@H]4C)nc(N4CCOC[C@@H]4C)nc3n2)c1` [VISTUSERTIB], the Kd in [1], in assay [2], in [3], in assay [4], in assay [5] and in [6] was > 30 µM (inactive) each time. The Kd in [7], in assay [8], in assay [9], in assay [10], in assay [11] and in assay [12] was > 30 µM (inactive) throughout. Besides, the Kd in assay [13] and in [14] was > 30 µM (inactive) in each case.
For the compound `COc1cc2nccc(Oc3ccc(NC(=O)C4(C(=O)Nc5ccc(F)cc5)CC4)cc3)c2cc1OC` [CABOZANTINIB], the Kd in [1], in [2], in [3], in assay [4], in assay [5] and in [6] was > 30 µM (inactive) throughout. Moreover, the Kd in [7], in [8], in assay [9], in [10], in assay [11] and in assay [12] was > 30 µM (inactive) in each case. Also, the Kd in [13] and in assay [14] was > 30 µM (inactive) in each case.
`Cc1cc(C(=O)Nc2cc(Oc3ccc4nc(NC(=O)C5CC5)cn4n3)ccc2C)n(C)n1` [TAK-593]: the Kd in assay [1], in assay [2], in assay [3], in [4], in assay [5] and in assay [6] was > 30 µM (inactive) each time. In addition, the Kd in assay [7], in [8], in [10], in [11], in assay [12] and in assay [13] was > 30 µM (inactive) in each case. Besides, the Kd in [14] is > 30 µM (inactive).
As for `FC(F)(F)c1ccc(CNc2ccc(Cc3c[nH]c4ncc(Cl)cc34)cn2)cn1` [PEXIDARTINIB], the Kd in [1], in [2], in assay [3], in assay [4], in [5] and in assay [6] was > 30 µM (inactive) in each case. In addition, the Kd in assay [7], in [8], in assay [10], in assay [11], in assay [12] and in [13] was > 30 µM (inactive) each time. Moreover, the Kd in assay [14] was > 30 µM (inactive).
In the case of `COc1cccc(Nc2ncnn3ccc(CN4CC[C@@H](N)[C@H](O)C4)c23)c1` [BMS-690514], the Kd in assay [1] is > 30 µM (inactive); in assay [2], > 30 µM (inactive); in assay [4], 1.37 µM (active); in [5], > 30 µM (inactive); in assay [6] it was > 30 µM (inactive); in assay [7], > 30 µM (inactive). Also, the Kd in assay [8] is > 30 µM (inactive); in assay [9], > 30 µM (inactive); in assay [10], > 30 µM (inactive); in assay [11], 1.85 µM (active); in [12], 1.56 µM (active); in assay [13] it was > 30 µM (inactive). Also, the Kd in [14] is > 30 µM (inactive).
Regarding `COc1cc(Nc2ncc(F)c(Nc3ccc4c(n3)N(COP(=O)(O)O)C(=O)C(C)(C)O4)n2)cc(OC)c1OC` [FOSTAMATINIB], the Kd in assay [1], in assay [2], in assay [3], in [4], in assay [5] and in [6] was > 30 µM (inactive) throughout. Moreover, the Kd in [7], in [8], in assay [9], in assay [10], in [11] and in assay [12] was > 30 µM (inactive) in each case. For the same compound, in assay [13], the Kd is > 30 µM (inactive).
